According to patent US9283234B2, “Compositions and methods for suppressing endometrial proliferation” (REPROS THERAPEUTICS INC., priority 2006, dated 2016):

What was measured:
[1] = molecular target: T1, glucocorticoid receptor (rbGR) (Oryctolagus cuniculus, UniProt P59667); assay: glucocorticoid receptor binding; design: species or system rabbit
T1 construct: cytosol containing PR or GR were prepared in TEGMD buffer; from tissue; host or cells: thymus of estradiol-primed immature rabbits (cytosol)
T1 sequence (P59667 1-772): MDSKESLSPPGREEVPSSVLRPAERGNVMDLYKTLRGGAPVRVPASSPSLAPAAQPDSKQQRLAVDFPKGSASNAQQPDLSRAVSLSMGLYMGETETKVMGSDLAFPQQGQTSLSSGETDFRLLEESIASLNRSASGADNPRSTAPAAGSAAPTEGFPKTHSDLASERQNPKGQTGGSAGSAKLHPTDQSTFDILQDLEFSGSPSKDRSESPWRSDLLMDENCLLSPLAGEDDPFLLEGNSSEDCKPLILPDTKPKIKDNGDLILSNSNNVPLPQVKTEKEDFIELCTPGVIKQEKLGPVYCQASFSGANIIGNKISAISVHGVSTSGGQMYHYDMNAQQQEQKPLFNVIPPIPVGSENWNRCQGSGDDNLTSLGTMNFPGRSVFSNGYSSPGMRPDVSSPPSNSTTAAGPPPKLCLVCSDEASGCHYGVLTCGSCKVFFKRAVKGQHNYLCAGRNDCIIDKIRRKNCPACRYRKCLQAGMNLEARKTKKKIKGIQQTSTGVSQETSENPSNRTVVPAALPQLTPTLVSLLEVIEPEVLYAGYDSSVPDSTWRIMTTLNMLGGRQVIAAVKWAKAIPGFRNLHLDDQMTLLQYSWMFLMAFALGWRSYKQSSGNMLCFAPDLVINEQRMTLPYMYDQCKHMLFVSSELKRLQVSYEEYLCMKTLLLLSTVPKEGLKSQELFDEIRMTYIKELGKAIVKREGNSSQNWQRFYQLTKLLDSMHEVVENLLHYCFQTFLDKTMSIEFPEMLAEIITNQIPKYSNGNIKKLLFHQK
Experimental: Certain antiprogestins were tested in receptor-binding assays for their ability to bind rabbit progesterone receptor (rbPR) and glucocorticoid receptor (rbGR). […] For PR binding, the cytosol was incubated with 6 nM 1,2-[^3H]progesterone (50.0 Ci/mmole) and competitors were added at concentrations from 2 to 100 nM. For binding to GR, the cytosol was incubated with 6 nM 6,7-[^3H]-dexamethasone (40 Ci/mmol) and test compounds were added at concentrations from 20 to 100 nM. After overnight incubation at 4 C, bound and unbound [^3H] steroids were separated by addition of dextran-coated charcoal and centrifugation at 2100×g for 15 min at 4 C. Supernatants containing the [^3H]-steroid receptor complexes were decanted into vials containing 4 ml OPTIFLUOR scintillation fluid (Packard Instrument Co.), vortexed, equilibrated in a liquid scintillation counter for 30 minutes and then counted for 2 minutes. […] The standards for the PR and GR assays were unlabeled progesterone and dexamethasone, respectively.

[2] = Measuring serum cortisol in rats; type: in vivo; details: 10 mg/kg, 21 days of chronic dosing, FIG. 1
[3] = estrogenic, androgenic, anti-estrogenic and anti-androgenic activities
Excerpt: These methods include receptor binding and in vivo bioassays such as anti-McGinty, anti-Clauberg, glucocorticoid, estrogenic, androgenic, anti-glucocorticoid (AG), anti-estrogen, and anti-androgen activities as well as post-coital and anti-ovulatory activities where in the leading compounds of the instant invention are used as a reference.

rabbit uterus = assay: anti-McGinty and anti-Clauberg assays; type: in vivo; details: average of anti-McGinty and anti-Clauberg results relative to CDB-2914 (=1.00)
Excerpt: Also given in Table 1 are the relative biological activities of the same compounds in the rabbit uterus by the anti-McGinty and anti-Clauberg assays. Compound CDB-2914 (listed at the end of the Table) was used as the control or reference compound (rabbit Biological Activity=1.00) for these experiments because results of experiments using CDB-2914 have been published before (Hild-Petito et al., 1996; Passaro et al., 1997; Reel et al., 1998; Larner et al., 2000). For the anti-McGinty test, immature female rabbits received a subcutaneous injection of 5 μg estradiol in 10% ethanol/sesame oil daily for 6 consecutive days. On day 7, animals underwent sterile abdominal surgery to ligate a 3-4 cm segment of both uterine horns. The test compound in appropriate solvent was injected intraluminally into the ligated segment of one uterine horn and vehicle alone into the other. A stimulating dose of progesterone (267 μg/day) was administered subcutaneously to each rabbit daily for the next three days to induce endometrial proliferation. All animals were sacrificed at day 10 for removal of the uterus where a segment central to the ligatures was removed and fixed in 10% neutral buffered formalin and submitted for histological processing. Five micron sections stained with hematoxylin and cosin were evaluated microscopically for the degree of endometrial glandular proliferation. The percent inhibition of endometrial proliferation for each rabbit was calculated and the mean of the group of five animals recorded. For the Anti-Clauberg test, immature female rabbits received a subcutaneous injection of 5 μg estradiol in 10% ethanol/sesame oil daily for 6 consecutive days. On day 7, animals received progesterone by subcutaneous injection (160 μg/day) and the experimental compound in appropriate vehicle orally or subcutaneously for five consecutive days. One group of rabbits received progesterone only. […] Five micron sections stained with hematoxylin and eosin were evaluated microscopically for the degree of endometrial glandular proliferation. […]

[4] = test system: rabbit progesterone receptor (rbPR) and glucocorticoid receptor (rbGR); assay: Receptor-binding assays, ratio of relative binding affinities rbPR/rbGR; details: ratio of relative binding affinities (RBA = EC50 of standard/EC50 of test compound x100) for rbPR and rbGR; standards progesterone, dexamethasone
Experimental: Certain antiprogestins were tested in receptor-binding assays for their ability to bind rabbit progesterone receptor (rbPR) and glucocorticoid receptor (rbGR). Briefly, cytosol containing PR or GR were prepared in TEGMD buffer (10 mM Tris, pH 7.2, 1.5 mM EDTA, 0.2 mM sodium molybdate, 10% glycerol, 1 mM DTT) from uterus or thymus, respectively, of estradiol-primed immature rabbits. For PR binding, the cytosol was incubated with 6 nM 1,2-[^3H]progesterone (50.0 Ci/mmole) and competitors were added at concentrations from 2 to 100 nM. For binding to GR, the cytosol was incubated with 6 nM 6,7-[^3H]-dexamethasone (40 Ci/mmol) and test compounds were added at concentrations from 20 to 100 nM. After overnight incubation at 4 C, bound and unbound [^3H] steroids were separated by addition of dextran-coated charcoal and centrifugation at 2100×g for 15 min at 4 C. Supernatants containing the [^3H]-steroid receptor complexes were decanted into vials containing 4 ml OPTIFLUOR scintillation fluid (Packard Instrument Co.), vortexed, equilibrated in a liquid scintillation counter for 30 minutes and then counted for 2 minutes. The EC50 (Effective Concentration) for each standard curve and each of the compound curves was determined by entering the counting data into a four parameter sigmoidal computer program ([…] Immunoassay Data Reduction Program, Packard Instrument Co., Meriden, Conn.). Relative binding affinity (RBA) for each compound was calculated using the following equation: EC50 of standard/EC50 of test compound×100. The standards for the PR and GR assays were unlabeled progesterone and dexamethasone, respectively. The results of these experiments are summarized in Table 1, as a ratio of the relative binding affinities of each compound for the rbPR and rbGR receptors (rbPR/rbGR).

[5] = test system: pain associated with endometriosis; assay: Six month endometriosis study: pain diaries and symptom surveys; type: in vivo, pre-menopausal adult women; design: key to score for intensity of pain on a bad day: 0-10 scale; 0 = no pain, 10 = extreme pain
Experimental: Pain reduction also occurred more rapidly than with the active control, LUCRIN. The response of pain to treatment in this study was analyzed in two ways. Patients in the study maintained daily pain diaries to record the severity and frequency of pain. In addition, at each office visit, patients filled out endometriosis symptom surveys that included a questionnaire that evaluated intensity of pain on a bad day on a scale of 0-10 with 10 being the greatest intensity. […] There appeared to be a dose dependent effect on pain reduction. […] This decrease in duration of pain was statistically better (p=0.0012) than the 117.8 (74%; standard deviation 51.4 days) pain free days achieved with LUCRIN. […] Patients on CDB-4124 12.5 mg and 25 mg doses had 115.9 (66%; standard deviation 69.2 days) and 133.6 (75%; standard deviation 27.4 days) pain free days, respectively. […] The 25 mg and 12.5 mg doses of CDB-4124 were not statistically different from LUCRIN. […] The intensity of pain was asked by the question: “On a scale of 1-10, with 0 being no pain and 10 being extreme pain, how intense was your pain on a bad day?” The mean scores for intensity of pain at baseline were 6.3 for the CDB-4124 groups and 6.1 for the LUCRIN group. […] At month three all four active treatment groups had statistically significant reduction in pain compared with baseline, with the following scores: 3.7 (p=0.03) for 12.5 mg CDB-4124, 3.2 (p=0.03) for 25 mg CDB-4124, 1.6 (p=0.015) for 50 mg CDB-4124 and 1.5 (p=0.016) for LUCRIN. These dose related reductions continued until month six when the values for pain intensity were 2.0 (p=0.008), 2.8 (p=0.023), 0.6 (p=0.004) and 0.7 (p=0.016), respectively. Two months after stopping treatment pain returned and was of similar intensity in all four treatment groups.

endometrium = assay: Six month endometriosis study: endometrial thickness (ultrasound) / endometrial proliferation; type: in vivo, pre-menopausal adult women; details: LUPRON once per month
Excerpt: Comparisons were made to both baseline and visit one ultrasound measurements of endometrial thickness. […]

[6] = Measuring serum corticosterone in rats; details: progesterone, CDB-4124 and RU-486 groups compared

## CC(=O)O[C@]1(C(C)=O)CC[C@H]2[C@@H]3CCC4=CC(=O)CCC4=C3[C@@H](c3ccc(N(C)C)cc3)C[C@@]21C [CDB-2914, 17α-acetoxy-11β-(4-N,N-dimethylaminophenyl)-19-norpregna-4,9-dien-3,20-dione]
[1]
  anti-glucocorticoid receptor activity / glucocorticoid receptor binding: moderately active in glucocorticoid receptor binding

## CC(=O)OCC(=O)[C@@]1(OC(C)=O)CCC2C3CCC4=CC(=O)CCC4=C3C(c3ccc(N(C)C)cc3)C[C@@]21C (stereo partly drawn) [CDB-4059, 21-acetoxy-17α-acetoxy-1,3-(4 N,N-dimethylaminophenyl)-19-norpregna-4,9-diene-3,20-dione]
[2]
  serum cortisol versus control group: significantly higher levels of serum cortisol
[3]
  estrogenic, androgenic, anti-estrogenic, and anti-androgenic activities: lack

## COCC(=O)[C@@]1(OC(C)=O)CCC2C3CCC4=CC(=NO)CCC4=C3C(c3ccc(N(C)C)cc3)C[C@@]21C (stereo partly drawn) [CDB-4205, 3-hydroxyamino-2′-methoxy-17α-acetoxy-11β-(4 N,N-dimethylaminophenyl)-19-norpregna-4,9-diene-3,20-dione]
Rabbit uterus
  rabbit Biol. Act.: 1.00
[4]
  rbPR/rbGR: 1.99

## CC(=O)OCC(=O)[C@@]1(OC(C)=O)CCC2C3CCC4=CC(=NO)CCC4=C3C(c3ccc(N(C)C)cc3)C[C@@]21C (stereo partly drawn) [CDB-4206, 3-hydroxyamino-2′-acetoxy-17α-acetoxy-11β-(4 N,N-dimethylaminophenyl)-19-norpregna-4,9-diene-3,20-dione]
Rabbit uterus
  rabbit Biol. Act.: 0.68
[4]
  rbPR/rbGR: 1.44

## CCOCC(=O)[C@@]1(OC(C)=O)CCC2C3CCC4=CC(=NO)CCC4=C3C(c3ccc(N(C)C)cc3)C[C@@]21C (stereo partly drawn) [CDB-4226, 3-hydroxyamino-21-ethyloxy-17α-acetoxy-11β-(4 N,N-dimethylaminophenyl)-19-norpregna-4,9-diene-3,20-dione]
Rabbit uterus
  rabbit Biol. Act.: 0.54
[4]
  rbPR/rbGR: 1.51

## CCNC(=O)[C@@H]1CCCN1C(=O)[C@H](CCCNC(=N)N)NC(=O)[C@H](CC(C)C)NC(=O)[C@@H](CC(C)C)NC(=O)[C@H](Cc1ccc(O)cc1)NC(=O)[C@H](CO)NC(=O)[C@H](Cc1c[nH]c2ccccc12)NC(=O)[C@H](Cc1c[nH]cn1)NC(=O)[C@@H]1CCC(=O)N1 [LUPRON, leuprolide acetate, reference compound]
[5]; LUCRIN once per month
  percent pain free days over the 180 day treatment period: 74%
[5]; all doses, on average
  distress related to pain over the six month exposure: reduced distress related to pain
[5]; baseline, scale 0-10
  mean score for intensity of pain on a bad day: 6.1
[5]; month six, LUCRIN once per month
  score for intensity of pain on a bad day: 0.7
[5]; month three, LUCRIN once per month
  score for intensity of pain on a bad day: 1.5
endometrium; 1st dose
  Endometrium (mm) 1st dose: 7.5 mm
endometrium; 3 months
  Endometrium (mm) 3 months: 2.75 mm
endometrium; screening
  Endometrium (mm) screening: 7.9 mm

## CC#C[C@]1(O)CC[C@H]2[C@@H]3CCC4=CC(=O)CCC4=C3[C@@H](c3ccc(N(C)C)cc3)C[C@@]21C [RU 486, 11β-[p-(Dimethylamino)phenyl]-17β-hydroxy-17-(1-propynyl)estra-4,9-dien-3-one, reference compound]
[2]
  serum cortisol versus control group: no significant difference in the levels of cortisol
[6]
  differences in serum corticosterone between treatment groups: No differences in serum corticosterone
[1]
  anti-glucocorticoid receptor activity / glucocorticoid receptor binding: moderately active in glucocorticoid receptor binding

## CC(=O)[C@H]1CC[C@H]2[C@@H]3CCC4=CC(=O)CC[C@]4(C)[C@H]3CC[C@]12C [progesterone, reference compound]
[6]
  differences in serum corticosterone between treatment groups: No differences in serum corticosterone
